Assays:
[1] = cited from earlier work
[2] = Taste profile (0-5 scale): adding additional steviol glycosides (Example 12); parameters: species or system human; conditions: added SG at 1.9 wt %; control without any added SGs
Experimental: To evaluate the effect of adding additional SGs on taste profiles relative to a control sample, raw materials were mixed with pure water as indicated in Table 32 to obtain the aqueous solutions as indicated. Taste profiles were determined as described above in Examples 9 and 10.

[3] = Taste profile (0-5 scale): different salt conditions (Example 11); parameters: species or system human; conditions: control as named at the place
Experimental: To evaluate the effect of different salt conditions on the resulting taste profiles relative to a control sample (i.e., 059 containing no salt), raw materials were mixed with pure water as indicated in Tables 28-31 to obtain the aqueous solutions as indicated. Taste profiles were determined as described above in Examples 9 and 10.

[4] = Evaluation of other sweeteners and inorganic salts on the taste profile (Example 7); parameters: species or system human; conditions: for taste profile results, potassium chloride vs sodium chloride: Test 1, salt as component of the composition
From the text: Evaluation of the Effects of Other Sweeteners and Inorganic Salts on the Taste Profile of the Composition
Test 1: Evaluation of Compositions Comprising Sodium Chloride and Potassium Chloride
Test 2: Evaluation of Compositions Comprising Various Sweeteners

[5] = Double-blind Flash sensory analysis of hydrolyzed D-glucose on RA/RB and RA97; parameters: species or system human; scale not given here; conditions: about 300 ppm in distilled H2O, A = 9.6 ppm, B = 4.8 ppm reacted glucose
Experimental: Experiment 2: Testing the Sensory Effects of Hydrolyzed D-glucose on RA/RB and RA97
1. To replicate the composition of a dried RA/RB hydrolyte treated with 0.625 mL of reagent, 5 g of RA/RB using a 61:39 ratio of RA97:RB was prepared, making sure to mix the sample thoroughly to ensure homogenization. (3.05 g RA97+1.95 g RB=5 g RA/RB blend). […] HPLC was used to confirm replication.
2. The amount of liquid D-glucose from each vial to be equivalent to 0.96 mg D-glucose from vial A/0.48 mg reacted D-glucose from vial B (representing the reaction product from use of 300 ppm of Stevia reacted with the highest and mid-level amount of 20% NaOH (0.625 mL and 0.3215 mL respectively) would be:
3. The following solution sets were created:
i. 299.04 mg RA/RB blend+668.5µL D-Glucose solution vial A+distilled H2O to a final volume of 1,000 mL (299.04 ppm RA/RB+9.6 ppm reacted glucose).
ii. 299.52 mg RA/RB blend+668.5µL D-Glucose solution vial B+distilled H2O to a final volume of 1,000 mL (299.52 ppm RA/RB+4.8 ppm reacted glucose).
iii. 300 mg RA/RB blend+distilled H2O to a final volume of 1,000 mL (300 ppm RA/RB).
i. 299.04 mg RA97+668.5µL D-Glucose solution vial A+distilled H2O to a final volume of 1,000 mL (299.04 ppm RA97+9.6 ppm reacted glucose).
ii. 299.52 mg RA97+668.5µL D-Glucose solution vial B+distilled H2O to a final volume of 1,000 mL ([…]+4.8 ppm reacted glucose).
iii. 300 mg RA97+distilled H2O to a final volume of 1,000 mL (300 ppm RA97).
Each set was tasted using double-blind Flash sensory analysis (number of analysts=2).

[6] = Taste profiling of sample formulations (Example 4, Test 1 and Test 2); parameters: species or system human; conditions: Test 2; added to RA/RB solution
Experimental: The samples in lines 2, 4, and 8 of FIG. 1 (0.0625, 0.25, and 0.5625 20% NaOH added) were prepared by mixing raw materials and then formulated in to solutions.
Mixed product: prepared by simply mixing raw materials according to the ratio of Lot #15-0100.

C=C1C[C@@]23CC[C@H]4[C@@](C)(CCC[C@@]4(C)C(=O)O[C@@H]4O[C@H](CO)[C@@H](O)[C@H](O)[C@H]4O)[C@@H]2CC[C@]1(O[C@@H]1O[C@H](CO)[C@@H](O)[C@H](O)[C@H]1O[C@@H]1O[C@H](CO)[C@@H](O)[C@H](O)[C@H]1O)C3 [stevioside]
solubility / dissolution (in words) ([1]; powder in water at 25° C.): very low solubility
taste profile relative to control sample 10-1 [2]: not significantly affected

O=S(=O)([O-])[O-].[Mg+2] [magnesium sulfate]
taste profile relative to the control sample [3]: not significantly affected

[Ca+2].[Cl-].[Cl-] [calcium chloride]
taste profile relative to the control sample [3]: not significantly affected

rebaudioside C [Reb-C]
taste profile relative to control sample 10-1 [2]: not significantly affected

C=C1C[C@@]23CC[C@H]4[C@@](C)(CCC[C@@]4(C)C(=O)O)[C@@H]2CC[C@]1(O[C@@H]1O[C@H](CO)[C@@H](O)[C@H](O)[C@H]1O[C@@H]1O[C@H](CO)[C@@H](O)[C@H](O)[C@H]1O)C3 [steviolbioside]
taste profile relative to control sample 10-1 [2]: not significantly affected

[Cl-].[K+] [potassium chloride]
taste profile results, potassium chloride vs sodium chloride [4]: Substantially same results

C=C1C[C@@]23CC[C@H]4[C@@](C)(CCC[C@@]4(C)C(=O)O[C@@H]4O[C@H](CO)[C@@H](O)[C@H](O)[C@H]4O)[C@@H]2CC[C@]1(O[C@@H]1O[C@H](CO)[C@@H](O)[C@H](O[C@@H]2O[C@H](CO)[C@@H](O)[C@H](O)[C@H]2O)[C@H]1O[C@@H]1O[C@H](CO)[C@@H](O)[C@H](O)[C@H]1O)C3 [RA97, Rebaudioside A]
T#10 Bitter [5]: 2.3
T#10 Linger [5]: 5
T#10 Ov. Like [5]: 6
T#10 Sugar Like Body [5]: 3.2
T#10 Sweetness [5]: 5.8
T#11 Bitter [5]: 5
T#11 Dry [5]: 5.9
T#11 Linger [5]: 5
T#11 Ov. Like [5]: 6.5
T#11 Sugar Like Body [5]: 4.4
T#11 Sweetness [5]: 6.8
solubility ([1]; in water at 25° C.): 0.8%

O=C(CO)[C@@H](O)[C@H](O)[C@H](O)CO [fructose]
effect of sweetener on taste profile relative to glucose ([4]; Test 2, sweetener as component of the composition): slightly lower than glucose

O=C([O-])[O-].[K+].[K+] [potassium carbonate]
taste profile relative to the control sample [3]: not significantly affected

[Cl-].[Na+] [sodium chloride]
effect of added component on the taste profile [6]: improved the “aftertaste” profile
taste profile results, potassium chloride vs sodium chloride [4]: Substantially same results

O=C[C@H](O)[C@@H](O)[C@H](O)[C@H](O)CO [glucose]
effect of added component on the taste profile [6]: improved the “sugar like” profile

Reference: US11241031B2, “Rebaudioside A and stevioside with improved solubilities” (SWEET GREEN FIELDS USA, LLC, priority 2014, dated 2022)
